Assay results taken from patent publication US20260070927A1, “INDAZOLE MACROCYCLES FOR THE TREATMENT OF AUTOIMMUNE DISEASE” (Hoffmann-La Roche Inc., priority 2022, published 2026).
Read-outs that look alike come from different tables or passages of the source.

Experiments:
[1] = molecular target: hERG channel (Homo sapiens (Human), UniProt Q12809); test: hERG channel inhibition assay (patch-clamp, CHOhERG cells); type: cell-based; settings: for IC20: human, CHO cells stably expressing hERG (CHOhERG)
From the text: The hERG K^+ channels were cloned in humans and stably expressed in a CHO (Chinese hamster ovary) cell line. CHOhERG cells (obtained from Roche Palo Alto LLC Cell Core Facilities) were used for patch-clamp (voltage-clamp, whole-cell) experiments. Cells were stimulated by a voltage pattern to activate hERG channels and conduct IKhERG currents (rapid delayed outward rectifier potassium current of the hERG channel). After the cells were stabilized in an internal solution that contains (in mM): KCl 10, KF 100, NaCl 10, HEPES 10, EGTA 20, pH=7.2 with KOH (osmolarity 260-300 mOsm) for a few minutes, the amplitude and kinetics of IKhERG were recorded at a stimulation frequency of 0.1 Hz (6 bpm). Thereafter, the test compound was dissolved in extracellular solution that contains (in mM): NaCl 150, KCl 4, CaCl2 1.2, MgCl2 1, HEPES 10, glucose 5, pH 7.2-7.4 with NaOH (osmolarity 290-330 mOsm), and was added to the preparation at increasing concentrations. For each concentration, an attempt was made to reach a steady-state effect, usually, this was achieved within 3-10 min at which time the next highest concentration was applied. The amplitude and kinetics of IKhERG are recorded in each concentration of the drug which were compared to the control values (taken as 100%).

[2] = Single dose pharmacokinetics (SDPK) study in male C57BL/6J mice; type: in vivo; settings: mouse; for clearance / AUC / half-life / Vd / Cmax: male, C57BL/6J, plasma; for half-life: read-out: T½ (converted); for Vd: read-out: Vss; for F: dose normalized AUCo-last after IV 1 mg/kg and PO 10 mg/kg
Procedure: Single Dose Pharmacokinetics (SDPK) Study in Male C57BL/6J Mice Pharmacokinetic properties of compounds were assessed by single dose PK studies in Male C57BL/6J Mice (vendor: WTLH-BJ). Briefly, two groups of animals were administered a single dose of respective compound intravenously (IV, bolus) at 1 mg/kg or orally (PO, by gavage) at 10 mg/kg. Blood samples were collected via Jugular vein at 5 min (only for IV), 15 min, 30 min, 1 h, 2 h, 4 h, 7 h and 24 h post-dose. Blood samples were placed into pre-chilled commercial EDTA-K2 tubes (vendor: Jiangsu Kangjian medical supplies co., LTD) and centrifuged at 3,200 g for 10 min at 4° C. to separate plasma from the samples. After centrifugation, the resulting plasma was transferred to clean tubes for bioanalysis with LC/MS/MS. The pharmacokinetic parameters were calculated using noncompartmental analysis. The volume of distribution (Vss), half-life (T1/2) and clearance (CL) were obtained based on the plasma concentration-time curve after IV dose. The peak concentration (Cmax) was recorded directly from experimental observations after PO dose. The area under the plasma concentration-time curve (AUCo-last) was calculated using the linear trapezoidal linear interpolation rule up to the last detectable concentration. The bioavailability (F) was calculated based on the dose normalized AUCo-last after IV and PO dose.

[3] = tested on: STING (IFN-β in hPBMC); test: hPBMC cytokine functional assay (IFN-β decrease after Baculovirus stimulation); type: cell-based; settings: Homo sapiens, Baculovirus MOI 40, 24 hours, read-out: hPBMC_IC50
Outline: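 Thawed hPBMC (70K cells/well) rested ≥3 h, then dosed with compound (final 0.5% DMSO) and infected with Baculovirus at MOI 40. Secreted IFN-β read by HTRF after 24 h at 37 °C. Cell viability checked in parallel by CellTiter-Glo.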

[4] = molecular target: human stimulator of interferon genes (STING) (139-379) (Homo sapiens (Human), UniProt Q86WV6); test: Microliter plate-based TR-FRET competition-binding assay for binders of STING; settings: Alexa488 probe, read-out: FRET_IC50
Outline: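 E. coli-expressed C-terminal flag-tagged STING (139-379) at 2.5 nM with 2.5 nM Tb-anti-Flag and 250 nM Alexa488-labelled active-site probe, 30 min at room temperature. TR-FRET 520/485 nm ratio after 320 nm excitation. Percent inhibition calculated relative to the 2′3′cGAMP positive control.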

[5] = Metabolic (liver microsomal) stability assay; settings: human liver microsomes, 1 μM test compound
Procedure: The liver microsomal stability assay is used for early assessment of metabolic stability of a test compound in liver microsomes.
Liver microsomes were preincubated with test compound for 10 minutes at 37° C. in 100 mM potassium phosphate buffer, pH 7.4. The reactions were initiated by adding NADPH regenerating system. The final incubation mixtures contained 1 μM test compound, 0.5 mg/mL liver microsomal protein, 1 mM MgCl2, 1 mM NADP, 1 unit/mL isocitric dehydrogenase and 6 mM isocitric acid in 100 mM potassium phosphate buffer, pH 7.4. After incubation times of 0, 3, 6, 9, 15 and 30 minutes at 37° C., 300 μL of cold acetonitrile (including internal standard) was added to 100 μL incubation mixture to terminate the reaction. Following precipitation and centrifugation, the amount of compound remaining in the samples were determined by LC-MS/MS. Controls of no NADPH regenerating system at zero and 30 minutes were also prepared and analyzed.

[6] = IV 1 mg/kg, read-out: IV AUCo-last
[7] = PO 10 mg/kg, read-out: PO AUCo-last

hERG channel, sequence (Q12809 whole entry): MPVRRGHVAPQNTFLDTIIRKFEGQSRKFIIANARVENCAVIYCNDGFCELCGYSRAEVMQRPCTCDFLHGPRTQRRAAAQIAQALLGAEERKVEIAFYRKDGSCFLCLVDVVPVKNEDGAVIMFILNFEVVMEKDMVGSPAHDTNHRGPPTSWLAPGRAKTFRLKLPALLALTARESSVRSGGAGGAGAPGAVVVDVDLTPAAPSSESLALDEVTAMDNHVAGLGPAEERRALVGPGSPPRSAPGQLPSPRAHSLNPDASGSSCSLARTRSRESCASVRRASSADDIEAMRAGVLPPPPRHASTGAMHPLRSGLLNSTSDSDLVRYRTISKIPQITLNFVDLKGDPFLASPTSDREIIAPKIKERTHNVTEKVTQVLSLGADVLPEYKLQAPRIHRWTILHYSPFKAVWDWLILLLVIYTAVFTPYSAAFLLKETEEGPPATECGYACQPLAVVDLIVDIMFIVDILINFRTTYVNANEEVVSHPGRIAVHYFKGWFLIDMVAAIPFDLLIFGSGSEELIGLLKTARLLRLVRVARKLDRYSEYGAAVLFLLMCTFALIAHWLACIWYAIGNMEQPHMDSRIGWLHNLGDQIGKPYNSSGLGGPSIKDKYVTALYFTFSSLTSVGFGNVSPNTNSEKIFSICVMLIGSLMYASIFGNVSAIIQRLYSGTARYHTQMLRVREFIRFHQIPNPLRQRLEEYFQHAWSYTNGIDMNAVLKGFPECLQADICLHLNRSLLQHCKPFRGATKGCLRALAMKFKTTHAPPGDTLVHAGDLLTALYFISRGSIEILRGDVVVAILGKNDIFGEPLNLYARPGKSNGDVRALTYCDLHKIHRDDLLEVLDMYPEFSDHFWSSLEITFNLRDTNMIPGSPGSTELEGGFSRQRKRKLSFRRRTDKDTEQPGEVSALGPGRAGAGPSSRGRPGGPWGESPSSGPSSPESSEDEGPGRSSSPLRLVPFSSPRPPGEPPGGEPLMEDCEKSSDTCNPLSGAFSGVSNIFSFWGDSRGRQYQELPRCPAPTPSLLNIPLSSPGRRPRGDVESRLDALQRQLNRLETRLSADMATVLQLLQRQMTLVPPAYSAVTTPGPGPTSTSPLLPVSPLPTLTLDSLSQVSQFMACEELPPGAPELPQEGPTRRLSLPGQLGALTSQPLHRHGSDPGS
human stimulator of interferon genes (STING) (139-379), sequence (Q86WV6 139-379): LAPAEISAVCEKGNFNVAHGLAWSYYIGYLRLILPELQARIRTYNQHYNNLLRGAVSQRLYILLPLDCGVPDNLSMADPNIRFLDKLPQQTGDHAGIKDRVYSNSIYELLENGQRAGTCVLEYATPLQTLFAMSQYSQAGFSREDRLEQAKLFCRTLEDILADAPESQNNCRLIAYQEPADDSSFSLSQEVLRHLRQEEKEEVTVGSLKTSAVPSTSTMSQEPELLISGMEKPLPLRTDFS

COc1cc(F)ccc1-n1ncc2c(N3C[C@@H]4C[C@H]3C(=O)N(C)CCCc3c5c(cccc5nn3C)-c3ccnc(n3)N4)ncnc21 [Example 6, (8S,11S)-10-[1-(4-fluoro-2-methoxy-phenyl)pyrazolo[3,4-d]pyrimidin-4-yl]-13,18-dimethyl-5,7,10,13,18,19,26-heptazapentacyclo[15.6.1.1^2,6.1^8,11.0^20,24]hexacosa-1(23),2,4,6(26),17(24),19,21-heptaen-12-one]
IC50 [1]: > 20000 nM
IC20 [1]: > 10000 nM
clearance ([2]; IV 1 mg/kg): 14.5 mL/min/kg
AUC [2, 6]: 1120 ng·h/mL
half-life ([2]; IV 1 mg/kg): 48 min
Vd ([2]; IV 1 mg/kg): 0.9 L/kg
Cmax ([2]; PO 10 mg/kg): 2990 ng/mL
AUC [2, 7]: 4740 ng·h/mL
F [2]: 42%
IC50 [3]: 588 nM
IC50 [4]: 5 nM
Clearance of human microsome [5]: 15.7 mL/min/kg

CN1CCCc2c3c(cccc3nn2C)-c2cccc(n2)O[C@H]2C[C@@H](C1=O)N(c1ncnc3c1cnn3-c1ccc(F)cc1F)C2 [Example 9, (8S,11S)-10-[1-(2,4-difluorophenyl)pyrazolo[3,4-d]pyrimidin-4-yl]-13,18-dimethyl-7-oxa-10,13,18,19,26-pentazapentacyclo[15.6.1.1^2,6.1^8,11.0^20,24]hexacosa-1(23),2(26),3,5,17(24),19,21-heptaen-12-one]
IC50 [1]: > 20000 nM
IC20 [1]: > 10000 nM
IC50 [3]: 1580 nM
IC50 [4]: 17.8 nM
Clearance of human microsome [5]: 11.6 mL/min/kg

Cn1nc2cccc3c2c1CCCNC(=O)[C@@H]1C[C@@H](CN1c1ncnc2c1cnn2-c1ccc(F)cc1F)Oc1ccnc-3c1 [Example 10, (8S,11S)-10-[1-(2,4-difluorophenyl)pyrazolo[3,4-d]pyrimidin-4-yl]-18-methyl-7-oxa-3,10,13,18,19-pentazapentacyclo[15.6.1.1^2,6.1^8,11.0^20,24]hexacosa-1(23),2(26),3,5,17(24),19,21-heptaen-12-one]
IC50 [1]: > 10000 nM
IC20 [1]: 8200 nM
IC50 [4]: 5.1 nM
Clearance of human microsome [5]: 8.3 mL/min/kg

CN1CCCc2c3c(cccc3nn2C)-c2ccnc(n2)O[C@H]2C[C@@H](C1=O)N(c1ncnc3c1cnn3-c1ccc(F)cc1F)C2 [Example 11, (8S,11S)-10-[1-(2,4-difluorophenyl)pyrazolo[3,4-d]pyrimidin-4-yl]-13,18-dimethyl-7-oxa-5,10,13,18,19,26-hexazapentacyclo[15.6.1.1^2,6.1^8,11.0^20,24]hexacosa-1(23),2(26),3,5,17(24),19,21-heptaen-12-one]
IC50 [1]: > 20000 nM
IC20 [1]: > 10000 nM
clearance ([2]; IV 1 mg/kg): 11.1 mL/min/kg
AUC [2, 6]: 1500 ng·h/mL
half-life ([2]; IV 1 mg/kg): 60 min
Vd ([2]; IV 1 mg/kg): 0.8 L/kg
Cmax ([2]; PO 10 mg/kg): 2780 ng/mL
AUC [2, 7]: 7120 ng·h/mL
F [2]: 48%
IC50 [3]: 803 nM
IC50 [4]: 21.4 nM
Clearance of human microsome [5]: 6.1 mL/min/kg

CN1CCN(CCCN2CCCc3c4c(cccc4nn3C)-c3cccc(c3)O[C@H]3C[C@@H](C2=O)N(c2ncnc4c2cnn4-c2ccc(F)cc2F)C3)CC1 [Example 32, (8S,11S)-10-[1-(2,4-difluorophenyl)pyrazolo[3,4-d]pyrimidin-4-yl]-18-methyl-13-[3-(4-methylpiperazin-1-yl)propyl]-7-oxa-10,13,18,19-tetrazapentacyclo[15.6.1.1^2,6.1^8,11.0^20,24]hexacosa-1(23),2(26),3,5,17(24),19,21-heptaen-12-one]
IC50 [3]: 1100 nM
IC50 [4]: 3.2 nM
Clearance of human microsome [5]: 11.5 mL/min/kg

CN1CC2CC1CN2CCCN1CCCc2c3c(cccc3nn2C)-c2cccc(c2)O[C@H]2C[C@@H](C1=O)N(c1ncnc3c1cnn3-c1ccc(F)cc1F)C2 [Example 34, (8S,11S)-10-[1-(2,4-difluorophenyl)pyrazolo[3,4-d]pyrimidin-4-yl]-18-methyl-13-[3-(5-methyl-2,5-diazabicyclo[2.2.1]heptan-2-yl)propyl]-7-oxa-10,13,18,19-tetrazapentacyclo[15.6.1.1^2,6.1^8,11.0^20,24]hexacosa-1(23),2(26),3,5,17(24),19,21-heptaen-12-one]
IC50 [3]: 2490 nM
IC50 [4]: 7 nM
Clearance of human microsome [5]: 6.1 mL/min/kg

Cn1nc2cccc3c2c1CCCN(CCCn1cnnn1)C(=O)[C@@H]1C[C@@H](CN1c1ncnc2c1cnn2-c1ccc(F)cc1F)Oc1cccc-3c1 [Example 36, (8S,11S)-10-[1-(2,4-difluorophenyl)pyrazolo[3,4-d]pyrimidin-4-yl]-18-methyl-13-[3-(tetrazol-1-yl)propyl]-7-oxa-10,13,18,19-tetrazapentacyclo[15.6.1.1^2,6.1^8,11.0^20,24]hexacosa-1(23),2(26),3,5,17(24),19,21-heptaen-12-one]
IC50 [3]: 1570 nM
IC50 [4]: 1.3 nM
Clearance of human microsome [5]: 11.9 mL/min/kg

Cn1nc2cccc3c2c1CCCN(CCC(C)(C)O)C(=O)[C@@H]1C[C@@H](CN1c1ncnc2c1cnn2-c1ccc(F)cc1F)Oc1cccc-3c1 [Example 40, (8S,11S)-10-[1-(2,4-difluorophenyl)pyrazolo[3,4-d]pyrimidin-4-yl]-13-(3-hydroxy-3-methyl-butyl)-18-methyl-7-oxa-10,13,18,19-tetrazapentacyclo[15.6.1.1^2,6.1^8,11.0^20,24]hexacosa-1(23),2(26),3,5,17(24),19,21-heptaen-12-one]
IC50 [3]: 708 nM
IC50 [4]: 8.6 nM
Clearance of human microsome [5]: 15.6 mL/min/kg

COc1cc(F)ccc1-n1ncc2c(N3C[C@@H]4C[C@H]3C(=O)N(CCCN3CCOCC3)CCCc3c5c(cccc5nn3C)-c3cccc(n3)N4)ncnc21 [Example 43, (8S,11S)-10-[1-(4-fluoro-2-methoxy-phenyl)pyrazolo[3,4-d]pyrimidin-4-yl]-18-methyl-13-(3-morpholinopropyl)-7,10,13,18,19,26-hexazapentacyclo[15.6.1.1^2,6.1^8,11.0^20,24]hexacosa-1(23),2(26),3,5,17(24),19,21-heptaen-12-one]
IC50 [1]: > 20000 nM
IC20 [1]: > 10000 nM
IC50 [3]: 292 nM
IC50 [4]: 3.5 nM
Clearance of human microsome [5]: 12.0 mL/min/kg

Cn1nc2c(F)ccc3c2c1CCCN(CCCN1CCOCC1)C(=O)[C@@H]1C[C@@H](CN1c1ncnc2c1cnn2-c1ccc(F)cc1F)Nc1cccc-3n1 [Example 44, (8S,11S)-10-[1-(2,4-difluorophenyl)pyrazolo[3,4-d]pyrimidin-4-yl]-21-fluoro-18-methyl-13-(3-morpholinopropyl)-7,10,13,18,19,26-hexazapentacyclo[15.6.1.1^2,6.1^8,11.0^20,24]hexacosa-1(23),2(26),3,5,17(24),19,21-heptaen-12-one]
IC50 [3]: 321 nM
IC50 [4]: 6.3 nM
Clearance of human microsome [5]: 15.8 mL/min/kg

COc1cc(F)ccc1-n1ncc2c(N3C[C@@H]4C[C@H]3C(=O)N(CCCN3CCOCC3)CCCc3c5c(ccc(F)c5nn3C)-c3cccc(n3)N4)ncnc21 [Example 45, (8S,11S)-21-fluoro-10-[1-(4-fluoro-2-methoxy-phenyl)pyrazolo[3,4-d]pyrimidin-4-yl]-18-methyl-13-(3-morpholinopropyl)-7,10,13,18,19,26-hexazapentacyclo[15.6.1.1^2,6.1^8,11.0^20,24]hexacosa-1(23),2(26),3,5,17(24),19,21-heptaen-12-one]
IC50 [3]: 569 nM
IC50 [4]: 3.9 nM
Clearance of human microsome [5]: 15.9 mL/min/kg
